# Results: patent US9169463B2, “Stem cell for therapeutic use which is derived from human monocyte, and method for inducing same” (OTSUKA PHARMACEUTICAL CO., LTD., priority 2008, dated 2015)
# System: peripheral blood monocytes
# Test: Comparison of stem cell-inducing activities of various gangliosides (viable cells, CellTiter-Glo)
# Assay type: cell-based, human
# Settings: gangliosides 100 μg/ml, rhM-CSF 25 ng/ml, second week of culture
# Procedure: More specifically, gangliosides were added to a culture medium at a final concentration of 100 μg/ml, and peripheral blood monocytes were cultured.
# rhM-CSF was added thereto at a final concentration of 25 ng/ml. Then, the number of viable cells in the second week of culture was quantified as luciferase activity using CellTiter-Glo (Promega).
row,Substance,"stem cell-inducing activity (number of viable cells as luciferase activity, FIG. 3)"
1,aNeu5Ac(2-3)bDGalp(1-3)bDGalNAc(1-4)[aNeu5Ac(2-3)]bDGalp(1-4)bDGlcp(1-1)Cer [GD1a],equally-strong stem cell-inducing activities
2,aNeu5Ac(2-3)bDGalp(1-3)bDGalNAc(1-4)[aNeu5Ac(2-8)aNeu5Ac(2-3)]bDGalp(1-4)bDGlcp(1-1)Cer [GT1b],equally-strong stem cell-inducing activities
3,bDGalp(1-3)bDGalNAc[aNeu5Ac(2-3)]bDGalp(1-4)bDGlcp(1-1)Cer [GM1],equally-strong stem cell-inducing activities
